Series [1] is described as follows: In vivo toxicity in hamsters (body weight, gross and histopathological organ changes). Particulars: 80 mg kg^-1 d^-1 atglistatin and 2.5 mg kg^-1 d^-1 remdesivir, singly or in combination.
Protocol: Three groups of 3 hamsters were treated intraperitoneally with 20, 40, and 80 mg kg^-1 d^-1 of atglistatin prepared in a 100 μL vehicle [50% PEG400 in water (vol/vol)] Bid with a 12 h interval for four and a half consecutive days, respectively (Table S10). One group of 3 control anesthetized hamsters was administered intraperitoneally with 100 μL vehicle Bid with a 12 h interval for four and a half consecutive days (Table S10).
Histopathological changes in lungs, liver, kidney, heart, and spleen from the experimental mice or hamsters in each experimental group were determined as described elsewhere.^35 Briefly, each sample from the mice or hamsters in each experimental group was fixed in sufficient 10% neutral formalin at 20°C for 3-4 days, washed in tap water, then trimmed, and thereafter processed in the automatic embedding machine for the dehydration and paraffin embedment. Tissue sections, prepared on slides at a thickness of 3 μm by a microtome, were used for hematoxylin and eosin (H&E) staining or IHC as described below. H&E stained sections were observed under light microscopy. The morphological changes to lung, liver, kidney, heart, and spleen tissues were reviewed in a blinded manner as previous described.^35
Series [2] has as its system HSL phosphorylation. Kind of series: HSL phosphorylation by western blot in SARS-CoV-2-infected Vero E6 cells. The format is cell-based, African green monkey. Particulars: 5 μM or 50 μM. A general note: Immunoblotting shows a protein as a band on a membrane.
The test system of series [3] is HSL phosphorylation. Briefly: HSL phosphorylation by western blot in IAV-infected A549 cells. The format is cell-based, human. The note with it: 5 μM or 50 μM.
A further series relates to SARS-CoV-2 (KCDC03). Kind of series: In vitro antiviral activity against SARS-CoV-2 in Vero E6 cells (CCIF viral yield, RT-qPCR). The format is cell-based. The note with it: SARS-CoV-2; FFA-deprived condition in lipase inhibitor-treated cells; 100 µM. For orientation: Real-time PCR tracks product formation cycle by cycle.
The test system of series [4] is Influenza A virus (H1N1) (PR8). Particulars: IAV; FFA-deprived condition in lipase inhibitor-treated cells; 100 µM.

`CCC(CC)COC(=O)[C@H](C)N[P@](=O)(OC[C@H]1O[C@@](C#N)(c2ccc3c(N)ncnn23)[C@H](O)[C@@H]1O)Oc1ccccc1` [remdesivir]: in series [1], the “toxicity, including body weight loss” value is “no toxicity”.
As to `O=S(=O)(NCCNC/C=C/c1ccc(Br)cc1)c1cccc2cnccc12` [H89], the “viral-mediated HSL phosphorylation” value in the series on HSL phosphorylation [2] and with HSL phosphorylation [3] was “prevented viral-mediated HSL phosphorylation” in each case.
With `CCCCCCCC/C=C\CCCCCCCC(=O)O` [OA, oleic acid], the “virus replication on FFA supplementation” value (in the series on SARS-CoV-2 (KCDC03); in series [4]) was “rescue of replication” each time.
In the case of `CCCCC/C=C\C/C=C\CCCCCCCC(=O)O` [LA, linoleic acid], the “virus replication on FFA supplementation” value (in the series on SARS-CoV-2 (KCDC03); in series [4]) was “rescue of replication” in each case.
For `CCCCCCCCCCCCCCCC(=O)O` [PA, palmitic acid], the “virus replication on FFA supplementation” value (in the series with SARS-CoV-2 (KCDC03); in series [4]) was “rescue of replication” throughout.

Source of the values: PMC9575645 (Signal Transduction and Targeted Therapy, 2022).
